Test results published in patent US20240270811A1, “Glycosylated Neuropeptide Derivative, Pharmaceutical Composition, Intranasal/Nasal Drop Formulation, and Use of Pharmaceutical Composition” (Tokyo University of Science Foundation, priority 2021, published 2024).
Where no end group is shown, it is not given here. The star is where a group is joined. Cam = NC(=O)C*

Tests used:
[1] = Solubility of GLP-2/GLP-1 derivatives with respect to aqueous medium (PBS); type: physicochemical
Description: Samples were prepared by dispensing a Milli-Q aqueous solution of PAS-CPP-GLP-2 (no sugar), PAS-CPP-GLP-2 (5-sugar) or PAS-CPP-GLP-2 (11-sugar) to a microtube by an amount of 5 nmol/tube, 30 nmol/tube, 60 nmol/tube, 120 nmol/tube or 200 nmol/tube, and freeze-drying the same. The freeze-dried samples were added with […] of PBS (Dulbecco's Phosphate Buffered Saline; Sigma-Aldrich, herein after the same), subjected to ultrasonic treatment, and allowed to stand overnight. Thereafter, the concentration of the peptide was measured. Specifically, a supernatant obtained by centrifuging the sample suspension was subjected to the measurement of OD (280 nm) with a spectrometer (NanoDrop™ 2000c spectrometer; Thermo Fisher Scientific K.K.)
Administration solutions were prepared by mixing a PAS-CPP-GLP-2 derivative (no sugar) or a PAS-CPP-GLP-2 derivative (11-sugar) with PBS. […] The concentration of each GLP-2 derivative was adjusted to 0.6 nmol/4 μL.
(§1) The concentration of a PAS-CPP-GLP-2 derivative (no sugar) or a PAS-CPP-GLP-2 derivative (11-sugar) was adjusted to 3.0 nmol/4 μL.

[2] = Migration to central nervous system, optical imaging of brain sagittal sections (ICG-labelled derivatives); type: in vivo, mouse; conditions: 3.0 nmol/4 μL intranasal
Description: Administration solutions were prepared by completely dissolving a PAS-CPP-GLP-2 derivative (no sugar) labelled with ICG or a PAS-CPP-GLP-2 derivative (11-sugar) labelled with ICG in DMSO, and adjusting the final concentration of DMSO to 16% by adding PBS.
as §1
After anesthetizing mice with isoflurane using an all-in-one small animal anesthetizer, the administration solutions or 16% DMSO as a control was intranasally administered to the mice by the amount of 2 μL per nose cavity, 4 μL in total.
In order to observe the migration to the brain over time, the brain was isolated 5 minutes, 10 minutes, 20 minutes, 60 minutes and 90 minutes after the intranasal administration, respectively, and subjected to infiltration fixation with 4% paraformaldehyde (4% PFA) solution overnight. Subsequently, a sagittal section with a thickness of 2 mm at the left and the right from the center of the brain was prepared using a brain matrix (RBM-2000S, ASI). The section was placed in a dish and analyzed with an optical imaging apparatus (Clairvivo OPT plus, Shimadzu Corporation) at an excitation wavelength of 785 nm, fluorescence wavelength of 849 nm, and an exposure time: 6 seconds.

[3] = Amount of migration to brain quantified by GLP-2 ELISA; type: in vivo; conditions: 6.0 nmol/mouse intranasal, brain isolated 20 minutes after administration
Description: Mice were intranasally administered with 16% DMSO or GLP-2 derivatives (6.0 nmol/mouse). The brain was isolated 20 minutes after the administration, and homogenized with BioMasher II (Nippi, Tokyo, Japan). A sample was prepared by performing centrifugal separation by 1000×g for 15 minutes and collecting a supernatant. The amount of a GLP-2 derivative in the sample was quantified using a GLP-2 ELISA kit. Specifically, a cleaning process including filling each well of a measurement plate with a cleaning fluid (350 μL) and suctioning the cleaning fluid with a pipette was performed three times. Subsequently, a labeled antigen solution (40 μL), a sample (25 μL) and a specific antibody solution (50 μL) were added in this order to the well and mixed. The measurement plate was tightly sealed and allowed to stand for 18 hours at 4° C. The cleaning process was performed three times, and a SA-HRP solution (100 μL) was added and allowed to permeate for 1.5 hours at room temperature (60 rpm). […] Finally, an enzyme reaction stop solution (100 μL) was added and an absorbance at 490 nm was measured with ARVO (PerkinElmer Japan Co., Ltd., Kanagawa, Japan) to calculate the concentration of a GLP-2 derivative.

[4] = system: 7-week-old male ddY mouse; experiment: Forced swim test (FST) after intranasal administration; type: in vivo; conditions: 16% DMSO in PBS, 0.6 nmol/mouse intranasal, 20 minutes before test session
Description: Administration solutions were prepared by completely dissolving PAS-CPP-GLP-2 derivative (no sugar) or PAS-CPP-GLP-2 derivatives (11-sugar, 5-sugar) in DMSO and adding PBS such that the final concentration of DMSO was 16% by mass. The concentration of each GLP-2 derivative was adjusted to 0.6 nmol/4 μL.
After anesthetizing mice with isoflurane using an all-in-one small animal anesthetizer (MK-AT210D, Muromachi Kikai Co., Ltd., hereinafter the same), the solution was intranasally administered to the mice. Specifically, the intranasal administration was performed by contacting a tip of the anesthetizer to a nasal cavity in a horizontal manner such that the solution was inhaled by spontaneous respiration, by the amount of 2 μL per nose cavity, 4 μL in total (0.6 nmol/mouse). […]
A 7-week-old male ddY mouse is placed in a transparent plastic cylinder with a diameter of 18 cm and a height of 50 cm containing water at a temperature of 25° C.±1° C. to a height of 7 cm, and is allowed to swim for 15 minutes. […] The behavior of the mouse is recorded over the test session with a video camera. […] The time during which the mouse is in a state of immobility (immobility time) is measured in the first 6 minutes from the start of the test session. The existence or non-existence of anti-depressant-like effects is determined by the length of the immobility time. […]

Substance	solubility with respect to PBS (FIG. 1) [1]	fluorescence in brain section ([2]; 10 minutes after administration)	fluorescence in brain section ([2]; 20 minutes after administration)	fluorescence in brain section ([2]; 60 minutes after administration)	amount of GLP-2 derivative in brain [3]	immobility time / anti-depressant-like effect vs control group [4]
FFLIPKGRRRRRRRRGGHADGSFSDEMNTILDNLAARDFINWLIQTKITDC(Cam)-OH [PAS-CPP-GLP-2 (no sugar), reference compound]	not dissolved in PBS at all	fluorescence was observed at a region around the hippocampus	fluorescence was observed	fluorescence was not observed	below the detection limit	–
glucagon-like peptide-2 (HADGSFSDEMNTILDNLAARDFINWLIQTKITD; GLP-2)	–	–	–	–	–	did not show a significant decrease in immobility time
